In brackets after ≈: the same amount, converted by molar mass. Where two headings read alike, the source gives them in different places.
Tests used:
G. lamblia 713M3 (MtzR) = test: ATP-bioluminescence growth/survival EC50 assay, G. lamblia 713M3; format: cell-based, Giardia lamblia
Protocol: (§1) Compounds were screened for antiparasitic activity using an ATP-bioluminescence based assay for cell growth and survival, [24]. […] Viable cell numbers were determined in triplicate using the CellTiter-Glo Luminescent Cell Viability Assay.

[1] = test system: C. difficile NAP1/027 (ATCC BAA-1803); test: Broth microdilution MIC assay, C. difficile NAP1/027; format: cell-based, Clostridium difficile; conditions: Clostridioides difficile, ATCCBAA1803; strain NAP1/027
Protocol: Clostridium difficile strains (630, ATCC BAA-1382 and NAP1/027, ATCC BAA-1803) were maintained as previously described. The minimum inhibition concentration (MIC) was determined according to the CLSI Methods with modifications in broth and inoculum for C. difficile, [25], [26]. Briefly, compounds and control antibiotics were serially diluted two-fold in 96-well plates (Non-binding surface, Corning). The plates were placed in a Coy anaerobic chamber (5% H2, 10% CO2, 85% N2) overnight to reduce the medium. C. difficile bacteria from BHIS(TA) agar plates were cultured anaerobically in BHIS at 37 °C overnight. […]. Compound concentration ranged from 64 to 0.03 μg/mL. An antibiotic standard, a positive growth control (no compound) and a sterility control (no bacteria) were included on each 96 well plate. Plates were covered and incubated at 37 °C for 24 h. MICs for each strain were determined as the lowest concentration without visible growth. Variance between replicates was typically within one 2-fold dilution. Median MICs are reported with a range given when the median MIC was between two tested concentrations.

[2] = Resazurin cytotoxicity assay, HEK293; format: cell-based, Human; conditions: human, 24 h, highest concentration 100 μM, n = 3, read-out: CC50 HEK 293
Protocol: (§2) Human HEK293 and HepG2 cells were seeded at 3000 and 5000 cells per well in 384-well plates, respectively. Cells were cultured in Dulbecco's modified Eagle's medium with 10% FBS for 24 h at 37 °C, 5% CO2. A dilution series of compounds was added, with the highest concentration of 100 μM. […] After 24 h incubation with the compounds, 5 μM resazurin was added into each well and incubated at 37 °C for 2 h. As a negative control, 1% Triton X-100 was added into the culture media to lyse all of the cells. The fluorescence intensity was read using Polarstar Omega with excitation/emission 560/590 nm. Data were analysed with GraphPad Prism 6 software (La Jolla, California USA) to calculate CC50 values.

T. vaginalis F1623 = test: ATP-bioluminescence growth/survival EC50 assay, T. vaginalis; format: cell-based, Trichomonas vaginalis
Protocol: as §1

[3] = test system: C. difficile 630 (ATCC BAA-1382); test: Broth microdilution MIC assay, C. difficile 630; format: cell-based, Clostridium difficile; conditions: Clostridioides difficile, ATCCBAA1382
Protocol: Clostridium difficile strains (630, ATCC BAA-1382 and NAP1/027, ATCC BAA-1803) were maintained as previously described. The minimum inhibition concentration (MIC) was determined according to the CLSI Methods with modifications in broth and inoculum for C. difficile, [25], [26]. Briefly, compounds and control antibiotics were serially diluted two-fold in 96-well plates (Non-binding surface, Corning). […] C. difficile bacteria from BHIS(TA) agar plates were cultured anaerobically in BHIS at 37 °C overnight. […] An antibiotic standard, a positive growth control (no compound) and a sterility control (no bacteria) were included on each 96 well plate. Plates were covered and incubated at 37 °C for 24 h. MICs for each strain were determined as the lowest concentration without visible growth. […] Median MICs are reported with a range given when the median MIC was between two tested concentrations.

G. lamblia WB (MtzS) = test: ATP-bioluminescence growth/survival EC50 assay, G. lamblia WB; conditions: for S.I (CC50/EC50): average cytotoxicity against HEK293 and HepG2 / G. lamblia WB activity
Protocol: as §1

[4] = Resazurin cytotoxicity assay, HepG2; format: cell-based, Human; conditions: human, 24 h, highest concentration 100 μM, n = 3, read-out: CC50 Hep G2
Protocol: as §2

E. histolytica HM1:IMSS = test: ATP-bioluminescence growth/survival EC50 assay, E. histolytica; format: cell-based, Entamoeba histolytica; conditions: Entamoeba histolytica
Protocol: as §1

[5] = Giardia duodenalis, read-out: EC50 G. lamblia 713M3, MtzR strain 713M3, minimum n = 3
[6] = Giardia duodenalis, read-out: pEC50 ± SE G. lamblia 713M3, MtzR strain 713M3 (converted)
[7] = Trichomonas vaginalis, read-out: EC50 T. vaginalis F1623, MtzS, minimum n = 3
[8] = Trichomonas vaginalis, read-out: pEC50 ± SE T. vaginalis F1623, MtzS (converted)
[9] = strain 630, MtzS, median of n = 4, read-out: MIC C. difficile 630
[10] = Giardia duodenalis, read-out: EC50 G. lamblia WB, MtzS strain WB, minimum n = 3
[11] = Giardia duodenalis, read-out: pEC50 ± SE G. lamblia WB, MtzS strain WB (converted)
[12] = read-out: EC50 E. histolytica HM1:IMSS
[13] = read-out: pEC50 ± SE E. histolytica HM1:IMSS (converted)
[14] = read-out: EC50 G. lamblia 713M3, MtzR strain 713M3, minimum n = 3
[15] = read-out: EC50 T. vaginalis F1623, MtzS, minimum n = 3
[16] = 630 and NAP1/027 strains together or strain not given, read-out: MIC C. difficile

SMILES	EC50 (G. lamblia 713M3 (MtzR); [5]) [µM]	EC50 (G. lamblia 713M3 (MtzR); [6]) [µM]	MIC [1] [µg/mL]	CC50 at 24 h ([2]; HEK293 cells) [µM]	EC50 (T. vaginalis F1623; [7]) [µM]	EC50 (T. vaginalis F1623; [8]) [µM]	MIC [3, 9] [µg/mL]	EC50 (G. lamblia WB (MtzS); [10]) [µM]	EC50 (G. lamblia WB (MtzS); [11]) [µM]	S.I (CC50/EC50) (G. lamblia WB (MtzS))	CC50 at 24 h ([4]; HepG2 cells) [µM]	EC50 (E. histolytica HM1:IMSS; [12]) [µM]	EC50 (E. histolytica HM1:IMSS; [13]) [µM]	EC50 (G. lamblia WB (MtzS); read-out: EC50 G. lamblia WB, MtzS strain WB, minimum n = 3) [µM]	EC50 (G. lamblia 713M3 (MtzR); [14]) [µM]	EC50 (T. vaginalis F1623; [15]) [µM]	MIC [3, 16] [µg/mL]	CC50 at 24 h [2] [µM]	CC50 at 24 h [4] [µM]
Cn1c([N+](=O)[O-])cnc1C(=O)NC1CC1 [Compound 8j, N-cyclopropyl-1-methyl-5-nitro-1H-imidazole-2-carboxamide]	8.6	8.71	> 64	> 100	1.1	1.1	> 64	3.4	3.39	>29	> 100	12	12	–	–	–	–	–	–
Cc1ccc(CCNC(=O)c2ncc([N+](=O)[O-])n2C)cc1 [Compound 8e, 1-methyl-N-(4-methylphenethyl)-5-nitro-1H-imidazole-2-carboxamide]	> 20	> 20	> 64	> 100	–	8.13	> 64	2.8 to 3.5	2.82	>36	> 100	13	12.9	2.8	–	–	–	–	–
Cc1ccc(CCNC(=O)c2ncc([N+](=O)[O-])[nH]2)cc1 [Compound 12e, N-(4-methylphenethyl)-5-nitro-1H-imidazole-2-carboxamide]	≤ 2.5	1.35	8 (≈ 29.2 µM)	> 100	1.2 to 2.3	1.2	8 (≈ 29.2 µM)	0.1 to 0.6	0.1	>1000	> 100	2.1	2.09	–	1.4	1.2	4 to 16 (≈ 14.6 to 58.3 µM)	–	–
CNC(=O)c1ncc([N+](=O)[O-])[nH]1 [Compound 12m, N-methyl-5-nitro-1H-imidazole-2-carboxamide]	> 20	> 20	1 (≈ 5.88 µM)	> 100	8.5	8.51	0.5 to 1 (≈ 2.94 to 5.88 µM)	9.9	10	>10	> 100	6.1	6.17	–	–	–	–	–	–
CC(NC(=O)c1ncc([N+](=O)[O-])[nH]1)c1ccc(F)cc1 (centres unmarked) [Compound 12d, N-(1-(4-fluorophenyl)ethyl)-5-nitro-1H-imidazole-2-carboxamide]	≤ 2.5	1.26	8 (≈ 28.8 µM)	> 100	0.6	0.589	8 (≈ 28.8 µM)	0.4	0.398	>250	> 100	1.7	1.7	–	1.3	–	–	–	–
O=C(NCc1cccc(OC(F)(F)F)c1)c1ncc([N+](=O)[O-])[nH]1 [Compound 12c, 5-nitro-N-(3-(trifluoromethoxy)benzyl)-1H-imidazole-2-carboxamide]	15	14.8	16 (≈ 48.5 µM)	–	1.9	1.91	16 (≈ 48.5 µM)	0.2	0.2	>500	–	3.6	3.63	–	–	–	–	> 100	> 100
Cn1c([N+](=O)[O-])cnc1C(=O)NCc1ccccn1 [Compound 8f, 1-methyl-5-nitro-N-(pyridin-2-ylmethyl)-1H-imidazole-2-carboxamide.xTFA]	4.1	4.07	64	> 100	1.4	1.45	64	1.6	1.58	>63	> 100	14	14.1	–	–	–	–	–	–
O=C(NCc1ccccn1)c1ncc([N+](=O)[O-])[nH]1 [Compound 12f, 5-nitro-N-(pyridin-2-ylmethyl)-1H-imidazole-2-carboxamide]	> 20	> 20	2 (≈ 8.09 µM)	> 100	7.1	7.08	2 (≈ 8.09 µM)	7.2	7.24	>14	> 100	15	15.1	–	–	–	–	–	–
CN(C)C(=O)c1ncc([N+](=O)[O-])[nH]1 [Compound 12g, N,N-dimethyl-5-nitro-1H-imidazole-2-carboxamide]	> 20	> 20	2 (≈ 10.9 µM)	> 100	2.4	2.34	2 (≈ 10.9 µM)	8.3	8.32	>12	> 100	2.7	2.69	–	–	–	–	–	–
O=C(c1ncc([N+](=O)[O-])[nH]1)N1CCCC1 [Compound 12i, (5-nitro-1H-imidazol-2-yl)(pyrrolidin-1-yl)methanone]	13	13.2	2 (≈ 9.52 µM)	> 100	1.2 to 2.3	1.7	2 (≈ 9.52 µM)	3.4	3.39	>29	> 100	4.3	4.27	–	–	1.7	–	–	–
O=C(NC1CC1)c1ncc([N+](=O)[O-])[nH]1 [Compound 12j, N-cyclopropyl-5-nitro-1H-imidazole-2-carboxamide]	> 20	> 20	1 (≈ 5.1 µM)	> 100	4.4	4.37	1 (≈ 5.1 µM)	5	5.01	>20	> 100	5.3	5.25	–	–	–	1 (≈ 5.1 µM)	–	–

Source: PMC4920673, “Nitroimidazole carboxamides as antiparasitic agents targeting Giardia lamblia, Entamoeba histolytica and Trichomonas vaginalis” (European Journal of Medicinal Chemistry, 2016)
